Key:
Settings in all cases: 72 h
BV-173 = tested on: BV-173
How it was run: (§1)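 The IC50 was read from log-logistic dose–response fits. Fifteen myeloid leukaemia lines were exposed for 72 h at 37 °C with 5% CO2 to five tenfold doses from 1 to 10,000 nM in duplicate. ATP luminescence, normalised to vehicle and to a 10 µM positive control, was fitted with four parameters.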

HEL [1] = tested on: HEL
How it was run: as §1

HL-60 [2] = tested on: HL-60
How it was run: as §1

K-562 [3] = tested on: K-562
How it was run: as §1

KCL-22 [4] = tested on: KCL-22
How it was run: as §1

KG-1 [5] = tested on: KG-1
How it was run: as §1

KU-812 [6] = tested on: KU-812
How it was run: as §1

LAMA-84 = tested on: LAMA-84
How it was run: as §1

ML-2 [7] = tested on: ML-2
How it was run: as §1

MOLM-13 [8] = tested on: MOLM-13
How it was run: as §1

MV4-11 [9] = tested on: MV4-11
How it was run: as §1

Mono-Mac-6 = tested on: Mono-Mac-6
How it was run: as §1

NOMO-1 [10] = tested on: NOMO-1
How it was run: as §1

SHI-1 [11] = tested on: SHI-1
How it was run: as §1

THP-1 [12] = tested on: THP-1
How it was run: as §1

HL-60 [13] = assay: cell viability (% survival relative to DMSO control); higher = less cytotoxic
How it was run: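 In 384-well plates, the full library was rescreened in duplicate on HL-60 cells in RPMI 1640 with 10% FBS, at 1–10,000 nM in five tenfold concentrations, for 72 h at 37 °C, 5% CO2. Each run also held DMSO or 100 nM of one of three metabolic inhibitors. Viability was measured by CellTiter-Glo and normalised to DMSO wells and to wells with proteasome inhibitor, present at 10 μM. Any area under the curve comes from four-parameter log-logistic fitting with drc and PharmacoGx.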

HEL [14] = assay: cell viability (% survival relative to DMSO control, bortezomib = 0%); higher = less cytotoxic
How it was run: (§2)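 Percent survival is reported as the mean of duplicate wells. Cells from 10 AML and 5 CML lines were plated in 384-well plates containing compounds at 1, 10, 100, 1000 or 10000 nM and kept for 72 h at 37 °C in 5% CO2. Readout used CellTiter-Glo luminescence, scaled so that vehicle equals 100% and a 10 µM positive control equals 0%.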

HL-60 [15] = assay: as above
How it was run: as §2

K-562 [16] = assay: as above
How it was run: as §2

KCL-22 [17] = assay: as above
How it was run: as §2

KG-1 [18] = assay: as above
How it was run: as §2

KU-812 [19] = assay: as above
How it was run: as §2

ML-2 [20] = assay: as above
How it was run: as §2

MOLM-13 [21] = assay: as above
How it was run: as §2

MV4-11 [22] = assay: as above
How it was run: as §2

NOMO-1 [23] = assay: as above
How it was run: as §2

SHI-1 [24] = assay: as above
How it was run: as §2

THP-1 [25] = assay: as above
How it was run: as §2

CC[C@H](C)[C@H](N)C(=O)N1CCSC1 [P32/98]
Settings	IC50 (cell viability) [µM]
BV-173	> 10
HEL [1]	> 10
HL-60 [2]	> 10
K-562 [3]	> 10
KCL-22 [4]	> 10
KG-1 [5]	> 10
KU-812 [6]	> 10
LAMA-84	> 10
ML-2 [7]	> 10
MOLM-13 [8]	> 10
MV4-11 [9]	> 10
Mono-Mac-6	> 10
NOMO-1 [10]	> 10
SHI-1 [11]	> 10
THP-1 [12]	> 10

cell viability [%], HL-60 [13]
Settings	0.001 µM	0.01 µM	0.1 µM	1 µM	10 µM
co-treatment: AZD3965 100 nM	99.83	97.4	102	98.4	95.6
co-treatment: DMSO vehicle	99.4	105	99.5	98.74	97.8
co-treatment: GSK2194069 100 nM	99.6	100	98.8	98.7	96.6
co-treatment: pictilisib 100 nM	105	106	96.3	105	101

cell viability [%]
Settings	1 nM	10 nM	100 nM	1000 nM	10000 nM
HEL [14]	105	98.7	109	107	105
HL-60 [15]	88.1	103	108	98.6	76.7
K-562 [16]	101	98.6	96.6	101	100
KCL-22 [17]	96.8	97.3	107	98.2	100
KG-1 [18]	97.9	110	108	112	137
KU-812 [19]	97.7	92.3	92.6	103	97.9
ML-2 [20]	102	102	102	103	91.2
MOLM-13 [21]	84.3	87.8	99.7	103	97.4
MV4-11 [22]	98.7	110	106	96.9	108
NOMO-1 [23]	102	102	99.6	102	92.9
SHI-1 [24]	111	99.9	103	97.1	88.5
THP-1 [25]	96.8	105	112	104	106

CC(=O)Nc1nc(C)c(-c2ccc(Cl)c(S(=O)(=O)NCCO)c2)s1 [PIK93]
Settings	IC50 (cell viability) [µM]
BV-173	0.792
HEL [1]	2.19
HL-60 [2]	0.935
K-562 [3]	2.66
KCL-22 [4]	1.12
KG-1 [5]	2.56
KU-812 [6]	2.69
LAMA-84	8.06
ML-2 [7]	0.607
MOLM-13 [8]	0.959
MV4-11 [9]	1.09
Mono-Mac-6	1.02
NOMO-1 [10]	2.05
SHI-1 [11]	1.09
THP-1 [12]	1.51

cell viability [%], HL-60 [13]
Settings	0.001 µM	0.01 µM	0.1 µM	1 µM	10 µM
co-treatment: AZD3965 100 nM	102.8	103	100	77.3	13.3
co-treatment: DMSO vehicle	98.3	101	99.6	85.1	23.5
co-treatment: GSK2194069 100 nM	102	106	103	81.7	18.2
co-treatment: pictilisib 100 nM	102	107	97	70.2	16.6

cell viability [%]
Settings	1 nM	10 nM	100 nM	1000 nM	10000 nM
HEL [14]	111	94	96.8	74.5	33.1
HL-60 [15]	119	120	84.2	50.7	3.89
K-562 [16]	134	98.9	110	82.3	31.9
KCL-22 [17]	132	99.4	100	64.2	20.7
KG-1 [18]	93.9	106	100	80.8	32.6
KU-812 [19]	92.6	93.9	94.7	80.1	29.2
ML-2 [20]	106	98.8	92.6	38.3	8.96
MOLM-13 [21]	129	111	89.9	50.2	0.72
MV4-11 [22]	96.3	95.7	84.5	51.1	0.217
NOMO-1 [23]	101	96.7	92.7	69.1	22.9
SHI-1 [24]	104	94.6	97.3	57.6	13.4
THP-1 [25]	105	102	112	74.7	24.5

OC[C@H]1O[C@@H](n2cnc3c2N=CNC[C@H]3O)C[C@@H]1O [Pentostatin]
Settings	IC50 (cell viability) [µM]
BV-173	> 10
HEL [1]	> 10
HL-60 [2]	> 10
K-562 [3]	> 10
KCL-22 [4]	> 10
KG-1 [5]	> 10
KU-812 [6]	> 10
LAMA-84	> 10
ML-2 [7]	> 10
MOLM-13 [8]	> 10
MV4-11 [9]	> 10
Mono-Mac-6	> 10
NOMO-1 [10]	> 10
SHI-1 [11]	> 10
THP-1 [12]	> 10

cell viability [%], HL-60 [13]
Settings	0.001 µM	0.01 µM	0.1 µM	1 µM	10 µM
co-treatment: AZD3965 100 nM	97.8	105	100	102	100.2
co-treatment: DMSO vehicle	92.3	105	94.9	106	102
co-treatment: GSK2194069 100 nM	86.6	101	98.8	101	93.96
co-treatment: pictilisib 100 nM	89.2	102	91.2	103	96.2

cell viability [%]
Settings	1 nM	10 nM	100 nM	1000 nM	10000 nM
HEL [14]	105	89.4	102	103	142
HL-60 [15]	99.5	99.7	98.2	100	118
K-562 [16]	95.3	106	111	99.2	107
KCL-22 [17]	99.1	89.9	101	94.3	105
KG-1 [18]	101	104	97.9	108	97.8
KU-812 [19]	96.4	99.5	112	95.1	115
ML-2 [20]	99.2	86.6	99.1	108	123
MOLM-13 [21]	86.9	99.7	101	110	114
MV4-11 [22]	95.8	104	107	105	103
NOMO-1 [23]	105	94.3	113	98.8	106
SHI-1 [24]	93.9	100	94.5	100	111
THP-1 [25]	102	93.5	111	98.3	103

From the supplement of paper PMC8671470
